Assay results published in patent publication US20240261417A1, “SOS1 DEGRADING AGENT AND PREPARATION METHOD THEREFOR AND APPLICATION THEREOF” (SHANGHAI LEADINGTAC PHARMACEUTICAL CO. LTD., priority 2021, published 2024).
Read-outs that look alike come from different tables or passages of the source.

Target: T1, SOS1 protein (Homo sapiens, UniProt Q07889)
T1 sequence (Q07889 1-1333): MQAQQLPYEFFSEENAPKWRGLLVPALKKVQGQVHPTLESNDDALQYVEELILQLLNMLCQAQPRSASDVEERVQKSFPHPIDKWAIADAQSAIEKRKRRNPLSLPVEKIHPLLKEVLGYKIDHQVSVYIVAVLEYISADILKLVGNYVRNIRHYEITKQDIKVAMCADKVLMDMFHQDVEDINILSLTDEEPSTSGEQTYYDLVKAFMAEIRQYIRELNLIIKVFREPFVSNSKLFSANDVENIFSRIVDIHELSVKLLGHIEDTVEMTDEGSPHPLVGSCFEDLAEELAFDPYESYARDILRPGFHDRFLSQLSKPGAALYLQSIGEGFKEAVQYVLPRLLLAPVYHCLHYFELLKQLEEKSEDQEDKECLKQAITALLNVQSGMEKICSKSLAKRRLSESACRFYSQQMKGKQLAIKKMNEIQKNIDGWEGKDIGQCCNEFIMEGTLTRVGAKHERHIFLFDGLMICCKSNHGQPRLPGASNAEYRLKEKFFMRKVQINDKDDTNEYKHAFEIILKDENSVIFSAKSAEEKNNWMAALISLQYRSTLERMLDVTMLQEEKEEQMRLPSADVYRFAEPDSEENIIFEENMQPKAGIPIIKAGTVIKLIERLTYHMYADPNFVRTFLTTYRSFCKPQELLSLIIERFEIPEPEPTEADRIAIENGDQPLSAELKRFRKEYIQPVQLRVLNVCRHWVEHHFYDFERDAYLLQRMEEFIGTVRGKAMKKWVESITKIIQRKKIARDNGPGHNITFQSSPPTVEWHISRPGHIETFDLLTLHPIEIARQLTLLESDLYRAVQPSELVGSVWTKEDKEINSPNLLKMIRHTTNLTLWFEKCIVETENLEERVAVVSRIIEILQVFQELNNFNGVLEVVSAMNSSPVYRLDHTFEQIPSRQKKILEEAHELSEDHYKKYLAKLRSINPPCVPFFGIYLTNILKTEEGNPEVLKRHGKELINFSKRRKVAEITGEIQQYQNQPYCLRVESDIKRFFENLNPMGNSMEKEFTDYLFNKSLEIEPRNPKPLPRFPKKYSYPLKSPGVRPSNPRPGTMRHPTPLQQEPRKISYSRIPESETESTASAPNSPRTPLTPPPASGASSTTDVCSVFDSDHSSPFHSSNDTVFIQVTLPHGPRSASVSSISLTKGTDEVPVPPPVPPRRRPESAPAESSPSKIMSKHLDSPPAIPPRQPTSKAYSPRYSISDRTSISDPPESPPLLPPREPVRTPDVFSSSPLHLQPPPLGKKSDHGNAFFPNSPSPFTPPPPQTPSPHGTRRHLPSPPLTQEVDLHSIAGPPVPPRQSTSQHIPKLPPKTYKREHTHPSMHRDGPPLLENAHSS
Test: SOS1 degradation assay (Western blot), NCI-H358 cells
Type: cell-based
Parameters: The degradation of SOS1 by the compounds was investigated on KRAS G12C mutant human non-small cell lung cancer cells NCI-H358; host or cells: NCI-H358 (human cancer cell lines)
Details: for DC50: read-out: NCI-H358 (G12C) DC50
Protocol: The specific procedures were as follows:
0.95 mL of cells were seeded into each well of a 24-well cell culture plate to achieve a cell density of 5×10^5 cells/well; the cell plate was incubated in an incubator at 37° C. with 5% CO2 overnight. Then 50 μL of the compound solution after dilution was added to each of the wells with the corresponding cells, so that the final concentration of the compound was in a range of 0.03-3000 nM. […] After dosing, the cell plate was incubated in an incubator at 37° C. with 5% CO2 for 24 h. […] After the plate was left to stand on ice for 30 min, the protein lysate in each well was transferred to a 1.5 mL centrifuge tube and centrifuged at 15000 g for 20 min at 4° C. The cell lysate supernatant after centrifugation was cryopreserved at −80° C. for testing and was used for determining the degradation level of the SOS1 protein by a WB method. The concentration of total protein in the cell lysate supernatant was determined using the BCA Protein Quantification Kit (Tiangen, PA115-02).
The concentration of total protein in the cell lysate was determined by BCA. The total protein was adjusted to 0.5 μg/μL with PBS and 5× SDS-PAGE protein loading buffer (Beyotime, P0015L), incubated in a water bath at 100° C. for 15 min, incubated in an ice bath on ice for 5 min, centrifuged at 14000 g for 1 min at 4° C., and mixed well as a loading sample for WB. Protein electrophoresis was performed on a precast gel (KeyGEN, KGMGO10W15) with a loading volume of 10 μL (total protein: 5 μg) using a Tris-MOPS-SDS running solution (Adamas, P1598253) at a constant voltage of 120 V for 55 min. After the electrophoresis, the protein on the gel strip was transferred to a PVDF membrane at a constant current of 250 mA for 65 min. After the membrane transfer, the membrane was incubated in 1× QuickBlock blocking buffer (Beyotime, P0235) for 30 min at room temperature. […] The protein map was subjected to gray value analysis by the chemiluminescence imaging system from Clinx. […] Then the degradation rate was calculated by comparing the gray correction value with the gray correction value of the control group. Then nonlinear curve fitting was performed by GraphPad Prism 8 in the logarithmic concentration-inhibition rate to obtain the DC50 and Dmax values of the compounds.

[1] = SOS1 degradation, NCI-H358 cells, 24 h, Western blot
[2] = SOS1 degradation, NCI-H358 cells, 24 h, Western blot, read-out: NCI-H358 (G12C) Dmax

SMILES | DC50 [1] [nM] | Dmax [2] [%] | NCI-H358 (G12C) Dmax [1] | Dmax (NCI-H358, read-out: NCI-H358 (G12C) Dmax) [%]
COc1cc2nc(C)nc(N[C@H](C)c3cc(N)cc(C(F)(F)F)c3)c2cc1[C@H]1CC[C@H](C(=O)N2CCN(CCOC3CCN(C(=O)c4ccc(Cl)c(N5CCC(=O)NC5=O)c4)CC3)CC2)CC1 [Example 30, 1-(5-(4-(2-(4-((1R,4R)-4-(4-(((R)-1-(3-amino-5-(trifluoromethyl)phenyl)ethyl)amino)-7-methoxy-2-methylquinazolin-6-yl)cyclohexane-1-carbonyl)piperazin-1-yl)ethoxy)piperidine-1-carbonyl)-2-chlorophenyl)dihydropyrimidine-2,4(1H,3H)-dione] | 1000 to 10000 | < 30 |  | 
COc1cc2nc(C)nc(N[C@H](C)c3cccc(C(F)(F)F)c3F)c2cc1[C@H]1CC[C@H](C(=O)N2CCN(CC3CCC4(CC3)CCN(C(=O)c3ccc(Cl)c(N5CCC(=O)NC5=O)c3)CC4)CC2)CC1 [Example 16, 1-(2-chloro-5-(9-((4-((1R,4R)-4-(4-(((R)-1-(2-fluoro-3-(trifluoromethyl)phenyl)ethyl)amino)-7-methoxy-2-methylquinazolin-6-yl)cyclohexane-1-carbonyl)piperazin-1-yl)methyl)-3-azaspiro[5.5]undecane-3-carbonyl)phenyl)dihydropyrimidine-2,4(1H,3H)-dione] | 500 to 1000 | 50 to 80 |  | 
COc1cc2nc(C)nc(N[C@H](C)c3cc(N)cc(C(F)(F)F)c3)c2cc1C1CCC(C(=O)N2CCN(CC3CCC4(CC3)CCN(C(=O)c3ccc(C5CCC(=O)NC5=O)cc3)CC4)CC2)CC1 (stereo partly drawn) [Example 23, 3-(4-(9-((4-((1R,4R)-4-(4-(((R)-1-(3-amino-5-(trifluoromethyl)phenyl)ethyl)amino)-7-methoxy-2-methylquinazolin-6-yl)cyclohexane-1-carbonyl)piperazin-1-yl)methyl)-3-azaspiro[5.5]undecane-3-carbonyl)phenyl)piperidine-2,6-dione] | < 50 |  | B (when 50≤Dmax (%)<80, the level was B) | 
COc1cc2nc(C)nc(N[C@H](C)c3cc(-c4ccccc4CN(C)C)cs3)c2cc1[C@H]1CC[C@H](C(=O)N2CCC(CCOCC3CCN(C(=O)c4ccc(Cl)c(N5CCC(=O)NC5=O)c4)CC3)CC2)CC1 [Example 48] | < 50 | 80 to 100 |  | 
Cc1nc(N[C@H](C)c2cc(N)cc(C(F)(F)F)c2)c2cc(C3CCN(CC(=O)NCCC4CCC5(CC4)CCN(C(=O)c4ccc(Cl)c(N6CCC(=O)NC6=O)c4)CC5)CC3)ccc2n1 [Example 77, (R)-2-(4-(4-((1-(3-amino-5-(trifluoromethyl)phenyl)ethyl)amino)-2-methylquinazolin-6-yl)piperidin-1-yl)-N-(2-(3-(4-chloro-3-(2,4-dioxotetrahydropyrimidin-1(2H)-yl)benzoyl)-3-azaspiro[5.5]undecan-9-yl)ethyl)acetamide] | 500 to 1000 | 80 to 100 |  | 
COc1cc2nc(C)nc(N[C@H](C)c3cc(N)cc(C(F)(F)F)c3)c2cc1[C@H]1CC[C@H](C(=O)N2CCC(CC3CCC4(CC3)CCN(C(=O)c3ccc(Cl)c(N5CCC(=O)NC5=O)c3)CC4)CC2)CC1 [Example 8, 1-(5-(9-((1-((1R,4R)-4-(4-(((R)-1-(3-amino-5-(trifluoromethyl)phenyl)ethyl)amino)-7-methoxy-2-methylquinazolin-6-yl)cyclohexane-1-carbonyl)piperidin-4-yl)methyl)-3-azaspiro[5.5]undecane-3-carbonyl)-2-chlorophenyl)dihydropyrimidine-2,4(1H,3H)-dione] | 50 to 100 | 80 to 100 |  | 
[2H]C([2H])(OCC1CCN(C(=O)c2ccc(Cl)c(N3CCC(=O)NC3=O)c2)CC1)C1CCN(C(=O)[C@H]2CC[C@H](c3cc4c(N[C@H](C)c5cc(N)cc(C(F)(F)F)c5)nc(C)nc4cc3OC)CC2)CC1 [Example 76, 1-(5-(4-(((1-((1R,4R)-4-(4-(((R)-1-(3-amino-5-(trifluoromethyl)phenyl)ethyl)amino)-7-methoxy-2-methylquinazolin-6-yl)cyclohexane-1-carbonyl)piperidin-4-yl)methoxy-d2)methyl)piperidine-1-carbonyl)-2-chlorophenyl)dihydropyrimidine-2,4(1H,3H)-dione] |  |  | B (when 50≤Dmax (%)<80, the level was B) | 
COc1cc2nc(C)nc(N[C@H](C)c3cc(N)cc(C(F)(F)F)c3)c2cc1[C@H]1CC[C@H](C(=O)N2CCN(CCC3CCN(C(=O)c4ccc(Cl)c(N5CCC(=O)NC5=O)c4)CC3)CC2)CC1 [Example 12, 1-(5-(4-(2-(4-((1R,4R)-4-(4-(((R)-1-(3-amino-5-(trifluoromethyl)phenyl)ethyl)amino)-7-methoxy-2-methylquinazolin-6-yl)cyclohexane-1-carbonyl)piperazin-1-yl)ethyl)piperidine-1-carbonyl)-2-chlorophenyl)dihydropyrimidine-2,4(1H,3H)-dione] | 1000 to 10000 | 30 to 50 |  | 
COc1cc2nc(C)nc(N[C@H](C)c3cc(NC(C)C)cc(C(F)(F)F)c3)c2cc1[C@H]1CC[C@H](C(=O)N2CCN(CC3CCC4(CC3)CCN(C(=O)c3ccc(Cl)c(N5CCC(=O)NC5=O)c3)CC4)CC2)CC1 [Example 18, 1-(2-chloro-5-(9-((4-((1R,4R)-4-(4-(((R)-1-(3-(isopropylamino)-5-(trifluoromethyl)phenyl)ethyl)amino)-7-methoxy-2-methylquinazolin-6-yl)cyclohexane-1-carbonyl)piperazin-1-yl)methyl)-3-azaspiro[5.5]undecane-3-carbonyl)phenyl)dihydropyrimidine-2,4(1H,3H)-dione] | 1000 to 10000 |  |  | < 30
Cc1nc(N[C@H](C)c2cc(N)cc(C(F)(F)F)c2)c2cc([C@H]3CC[C@H](C(=O)N4CCN(CC5CCC6(CC5)CCN(C(=O)c5ccc(Cl)c(N7CCC(=O)NC7=O)c5)CC6)CC4)CC3)ncc2n1 [Example 78, 1-(5-(9-((4-((1R,4R)-4-(4-(((R)-1-(3-amino-5-(trifluoromethyl)phenyl)ethyl)amino)-2-methylpyrido[3,4-d]pyrimidin-6-yl)cyclohexane-1-carbonyl)piperazin-1-yl)methyl)-3-azaspiro[5.5]undecane-3-carbonyl)-2-chlorophenyl)dihydropyrimidine-2,4(1H,3H)-dione] | 100 to 500 | 50 to 80 |  | 
